Species on record: Rattus norvegicus
Assay: DrugMatrix - Regimen: Daily Repeat
Assay type: toxicity, organism-based, Sprague-Dawley
Set-up: regimen Daily Repeat, gender Male, age 6-8 weeks
Details: in vivo, po, 739 mg/kg, route oral GAVAGE, dose level High, vehicle 100 % WATER; for ABSOLUTE BASOPHIL / ABSOLUTE EOSINOPHIL / ABSOLUTE LYMPHOCYTE / ABSOLUTE MONOCYTE / ABSOLUTE SEGMENTED NEUTROPHIL / BASOPHIL / EOSINOPHIL / ERYTHROCYTE COUNT / HEMATOCRIT / HEMOGLOBIN / LEUKOCYTE COUNT / LYMPHOCYTE / MEAN CORPUSCULAR HEMOGLOBIN / MEAN CORPUSCULAR HEMOGLOBIN CONCENTRATION / MEAN CORPUSCULAR VOLUME / MONOCYTE / NEUTROPHIL / NUCLEATED RED BLOOD CELLS / PLATELET COUNT: tissue Blood; for ALANINE AMINOTRANSFERASE / ALBUMIN / ALKALINE PHOSPHATASE / ASPARTATE AMINOTRANSFERASE / BLOOD UREA NITROGEN / CARBON DIOXIDE / CHLORIDE / CHOLESTEROL / CREATINE PHOSPHOKINASE / CREATININE / GLUCOSE / LACTATE DEHYDROGENASE / LIPASE / PHOSPHORUS / POTASSIUM / SODIUM / TOTAL BILIRUBIN / TOTAL PROTEIN / URIC ACID: tissue Plasma

C[C@H]1COc2c(N3CCN(C)CC3)c(F)cc3c(=O)c(C(=O)O)cn1c23.C[C@H]1COc2c(N3CCN(C)CC3)c(F)cc3c(=O)c(C(=O)O)cn1c23.O [LEVOFLOXACIN]
ABSOLUTE BASOPHIL (72 h, time 3 day): 0 CELLS/uL | ABSOLUTE EOSINOPHIL (72 h, time 3 day): 60.67 CELLS/uL | ABSOLUTE LYMPHOCYTE (72 h, time 3 day): 15481 CELLS/uL | ABSOLUTE MONOCYTE (72 h, time 3 day): 289.33 CELLS/uL | ABSOLUTE SEGMENTED NEUTROPHIL (72 h, time 3 day): 1169 CELLS/uL | BASOPHIL (72 h, time 3 day): 0% | EOSINOPHIL (72 h, time 3 day): 0.33% | ERYTHROCYTE COUNT (72 h, time 3 day): 5.52 x10E6/uL | HEMATOCRIT (72 h, time 3 day): 35.23% | HEMOGLOBIN (72 h, time 3 day): 13.27 G/DL | LEUKOCYTE COUNT (72 h, time 3 day): 17 x10E3/uL | LYMPHOCYTE (72 h, time 3 day): 91% | MEAN CORPUSCULAR HEMOGLOBIN (72 h, time 3 day): 24.03 pg | MEAN CORPUSCULAR HEMOGLOBIN CONCENTRATION (72 h, time 3 day): 37.67 G/DL | MEAN CORPUSCULAR VOLUME (72 h, time 3 day): 63.8 fL | MONOCYTE (72 h, time 3 day): 1.67% | NEUTROPHIL (72 h, time 3 day): 7% | NUCLEATED RED BLOOD CELLS (72 h, time 3 day): 0 /100WBC | PLATELET COUNT (72 h, time 3 day): 1423.67 x10E3/uL | ALANINE AMINOTRANSFERASE (72 h, time 3 day): 46.33 u/L | ALBUMIN (72 h, time 3 day): 4.1 G/DL | ALKALINE PHOSPHATASE (72 h, time 3 day): 308 u/L | ASPARTATE AMINOTRANSFERASE (72 h, time 3 day): 72.67 u/L | BLOOD UREA NITROGEN (72 h, time 3 day): 16.33 mg/dL | CARBON DIOXIDE (72 h, time 3 day): 26.67 mmol/L | CHLORIDE (72 h, time 3 day): 104.33 MEQ/L | CHOLESTEROL (72 h, time 3 day): 82.33 mg/dL | CREATINE PHOSPHOKINASE (72 h, time 3 day): 201.67 u/L | CREATININE (72 h, time 3 day): 0.14 mg/dL | GLUCOSE (72 h, time 3 day): 154.33 mg/dL | LACTATE DEHYDROGENASE (72 h, time 3 day): 124 u/L | LIPASE (72 h, time 3 day): 8.67 u/L | PHOSPHORUS (72 h, time 3 day): 11.47 mg/dL | POTASSIUM (72 h, time 3 day): 6.3 MEQ/L | SODIUM (72 h, time 3 day): 146.37 MEQ/L | TOTAL BILIRUBIN (72 h, time 3 day): 0.17 mg/dL | TOTAL PROTEIN (72 h, time 3 day): 5.97 G/DL | URIC ACID (72 h, time 3 day): 1.7 mg/dL | ABSOLUTE BASOPHIL (120 h, time 5 day): 0 CELLS/uL | ABSOLUTE EOSINOPHIL (120 h, time 5 day): 0 CELLS/uL | ABSOLUTE LYMPHOCYTE (120 h, time 5 day): 15118 CELLS/uL | ABSOLUTE MONOCYTE (120 h, time 5 day): 376 CELLS/uL | ABSOLUTE SEGMENTED NEUTROPHIL (120 h, time 5 day): 706 CELLS/uL | BASOPHIL (120 h, time 5 day): 0% | EOSINOPHIL (120 h, time 5 day): 0% | ERYTHROCYTE COUNT (120 h, time 5 day): 6.32 x10E6/uL | HEMATOCRIT (120 h, time 5 day): 38.53% | HEMOGLOBIN (120 h, time 5 day): 14.33 G/DL | LEUKOCYTE COUNT (120 h, time 5 day): 16.2 x10E3/uL | LYMPHOCYTE (120 h, time 5 day): 93.33% | MEAN CORPUSCULAR HEMOGLOBIN (120 h, time 5 day): 22.7 pg | MEAN CORPUSCULAR HEMOGLOBIN CONCENTRATION (120 h, time 5 day): 37.2 G/DL | MEAN CORPUSCULAR VOLUME (120 h, time 5 day): 61.03 fL | MONOCYTE (120 h, time 5 day): 2.33% | NEUTROPHIL (120 h, time 5 day): 4.33% | NUCLEATED RED BLOOD CELLS (120 h, time 5 day): 0.33 /100WBC | PLATELET COUNT (120 h, time 5 day): 1446 x10E3/uL | ALANINE AMINOTRANSFERASE (120 h, time 5 day): 51.67 u/L | ALBUMIN (120 h, time 5 day): 4.27 G/DL | ALKALINE PHOSPHATASE (120 h, time 5 day): 400 u/L | ASPARTATE AMINOTRANSFERASE (120 h, time 5 day): 69.33 u/L | BLOOD UREA NITROGEN (120 h, time 5 day): 16.33 mg/dL | CARBON DIOXIDE (120 h, time 5 day): 25.67 mmol/L | CHLORIDE (120 h, time 5 day): 105.33 MEQ/L | CHOLESTEROL (120 h, time 5 day): 69.67 mg/dL | CREATINE PHOSPHOKINASE (120 h, time 5 day): 212 u/L | CREATININE (120 h, time 5 day): 0.19 mg/dL | GLUCOSE (120 h, time 5 day): 191.33 mg/dL | LACTATE DEHYDROGENASE (120 h, time 5 day): 130.33 u/L | LIPASE (120 h, time 5 day): 9 u/L | PHOSPHORUS (120 h, time 5 day): 14.27 mg/dL | POTASSIUM (120 h, time 5 day): 6.6 MEQ/L | SODIUM (120 h, time 5 day): 147.87 MEQ/L | TOTAL BILIRUBIN (120 h, time 5 day): 0.17 mg/dL | TOTAL PROTEIN (120 h, time 5 day): 6.23 G/DL | URIC ACID (120 h, time 5 day): 2.37 mg/dL

Reference: ChEMBL document CHEMBL3885881, “DrugMatrix”
